Source: ChEMBL document CHEMBL1133837, “Discovery of selective hydroxamic acid inhibitors of tumor necrosis factor-alpha converting enzyme” (Bioorg Med Chem Lett, 2001)

How the values were obtained:
Interstitial collagenase = molecular target: T1, Interstitial collagenase (Homo sapiens, UniProt P03956)
T1 sequence (P03956 whole entry): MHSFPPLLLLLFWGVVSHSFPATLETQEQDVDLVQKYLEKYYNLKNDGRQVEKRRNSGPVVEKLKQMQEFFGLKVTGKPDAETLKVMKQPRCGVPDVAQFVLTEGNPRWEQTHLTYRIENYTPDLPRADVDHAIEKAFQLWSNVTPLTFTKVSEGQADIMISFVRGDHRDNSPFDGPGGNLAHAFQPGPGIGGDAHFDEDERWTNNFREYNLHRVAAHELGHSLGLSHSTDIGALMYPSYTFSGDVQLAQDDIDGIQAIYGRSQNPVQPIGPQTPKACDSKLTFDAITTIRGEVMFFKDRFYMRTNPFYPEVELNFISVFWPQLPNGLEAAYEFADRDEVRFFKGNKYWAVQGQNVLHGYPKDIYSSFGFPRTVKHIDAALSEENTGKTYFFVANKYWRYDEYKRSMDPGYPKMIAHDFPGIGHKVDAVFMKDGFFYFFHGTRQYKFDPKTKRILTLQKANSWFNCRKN

[1] = molecular target: T2, Disintegrin and metalloproteinase domain-containing protein 17 (Homo sapiens, UniProt P78536); format: functional, cell-based, THP-1
[2] = molecular target: T2, Disintegrin and metalloproteinase domain-containing protein 17
[3] = molecular target: 72 kDa type IV collagenase (Homo sapiens, UniProt P08253)
Chain of 72 kDa type IV collagenase (P08253 whole entry): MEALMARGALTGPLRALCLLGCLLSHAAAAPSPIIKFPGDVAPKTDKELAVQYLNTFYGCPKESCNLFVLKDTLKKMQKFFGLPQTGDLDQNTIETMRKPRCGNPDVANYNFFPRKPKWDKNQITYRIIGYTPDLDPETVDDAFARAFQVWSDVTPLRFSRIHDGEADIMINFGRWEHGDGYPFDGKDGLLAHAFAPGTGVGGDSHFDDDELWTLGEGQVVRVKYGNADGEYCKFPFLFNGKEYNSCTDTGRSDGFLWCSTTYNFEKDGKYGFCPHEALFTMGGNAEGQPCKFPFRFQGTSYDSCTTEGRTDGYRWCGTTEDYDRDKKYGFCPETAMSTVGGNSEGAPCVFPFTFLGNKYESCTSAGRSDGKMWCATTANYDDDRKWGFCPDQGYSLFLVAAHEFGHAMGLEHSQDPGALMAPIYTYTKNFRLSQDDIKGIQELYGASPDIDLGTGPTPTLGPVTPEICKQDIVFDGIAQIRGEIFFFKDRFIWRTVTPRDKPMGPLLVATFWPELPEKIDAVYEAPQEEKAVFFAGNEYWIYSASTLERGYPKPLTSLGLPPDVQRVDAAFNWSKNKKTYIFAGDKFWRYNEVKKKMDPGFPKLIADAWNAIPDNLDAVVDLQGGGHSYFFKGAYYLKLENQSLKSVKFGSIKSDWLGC

T2 sequence (P78536 whole entry, the tested form may be a part): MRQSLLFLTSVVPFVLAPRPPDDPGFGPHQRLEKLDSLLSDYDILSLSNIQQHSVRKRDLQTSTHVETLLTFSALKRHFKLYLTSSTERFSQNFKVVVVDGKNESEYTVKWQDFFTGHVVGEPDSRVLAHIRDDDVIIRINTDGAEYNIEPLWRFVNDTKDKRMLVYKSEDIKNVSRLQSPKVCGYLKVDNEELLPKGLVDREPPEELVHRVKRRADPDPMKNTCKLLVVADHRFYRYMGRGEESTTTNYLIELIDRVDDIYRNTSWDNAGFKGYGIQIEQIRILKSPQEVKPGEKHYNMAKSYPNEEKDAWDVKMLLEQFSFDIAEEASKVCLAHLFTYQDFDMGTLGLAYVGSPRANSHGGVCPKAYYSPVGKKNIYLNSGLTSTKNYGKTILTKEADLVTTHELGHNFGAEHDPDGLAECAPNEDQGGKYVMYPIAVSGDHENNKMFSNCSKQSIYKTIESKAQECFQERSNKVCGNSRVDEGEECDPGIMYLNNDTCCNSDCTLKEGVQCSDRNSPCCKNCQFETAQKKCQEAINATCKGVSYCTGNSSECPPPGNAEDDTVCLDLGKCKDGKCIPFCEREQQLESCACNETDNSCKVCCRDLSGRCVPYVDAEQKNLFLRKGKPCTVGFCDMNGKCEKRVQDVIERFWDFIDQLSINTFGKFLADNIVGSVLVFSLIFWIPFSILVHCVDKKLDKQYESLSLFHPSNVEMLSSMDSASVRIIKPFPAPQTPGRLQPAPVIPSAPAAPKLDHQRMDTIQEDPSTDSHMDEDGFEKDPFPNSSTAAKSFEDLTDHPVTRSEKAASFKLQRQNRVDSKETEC

SMILES | IC50 (Interstitial collagenase) [µM] | IC50 [1] [µM] | IC50 [2] [µM] | IC50 [3] [µM]
COc1cc(CCC[C@H]2C(=O)N[C@H](C(=O)c3ccccc3)Cc3ccc(cc3)OCCCC[C@@H]2C(=O)NO)cc(OC)c1OC | > 10 | – | – | –
CNC(=O)[C@@H]1Cc2ccc(cc2)OCCCC[C@H](C(=O)NO)[C@@H](CCCc2ccc(Cl)cc2)C(=O)N1 | – | 0.44 | 0.0034 | –
CNC(=O)[C@@H]1Cc2ccc(cc2)OCCCC[C@H](C(=O)NO)[C@@H](CCCc2cc(C)cc(C(C)C)c2)C(=O)N1 | > 1 | – | – | –
CC1(C)SCCN(S(=O)(=O)c2ccc(Oc3cccnc3)cc2)[C@H]1C(=O)NO | 0.0057 | – | – | –
CNC(=O)[C@@H]1Cc2ccc(cc2)OCCCC[C@H](C(=O)NO)[C@@H](CCCc2cc(OC)ccc2OC)C(=O)N1 | – | 4.1 | 0.0068 | –
COc1cc(Oc2ccc(S(=O)(=O)CC(C)C(=O)NO)cc2)cc(OC)c1OC (stereo not drawn) | > 10 | – | – | 0.43
COCCOc1cc(CCC[C@H]2C(=O)N[C@H](C(=O)c3ccccc3)Cc3ccc(cc3)OCCCC[C@@H]2C(=O)NO)cc(OC)c1 | > 10 | 15 | 0.074 | –
COc1cc(Oc2ccc(SCC(C)C(=O)NO)cc2)cc(OC)c1OC (stereo not drawn) | > 10 | – | 0.18 | 3.4
COc1cc(CCC[C@H]2C(=O)N[C@H](C(=O)c3ccccc3)Cc3ccc(cc3)OCCCC[C@@H]2C(=O)NO)cc(OC)c1 | > 10 | – | – | –
O=C(c1ccccc1)[C@@H]1Cc2ccc(cc2)OCCCC[C@H](C(=O)NO)[C@@H](CCCc2cc(Br)cc(Br)c2)C(=O)N1 | – | > 5 | 0.087 | –
CNC(=O)[C@@H]1Cc2ccc(cc2)OCCCC[C@H](C(=O)NO)[C@@H](CCCc2cc(C(F)(F)F)cc(C(F)(F)F)c2)C(=O)N1 | > 10 | 0.3 | 0.033 | –
COc1cc(Oc2ccc(S(=O)(=O)N3CCSC(C)(C)[C@@H]3C(=O)NO)cc2)cc(OC)c1OC | 0.026 | – | – | 0.021
